Where two headings read alike, the source gives them in different places. Marks after values point to notes of the source that are not given here.
Key:
[1] = system: T. cruzi Queretaro strain epimastigotes; test: Growth of epimastigotes cultured in vitro (motile parasites counted, relative growth); assay type: cell-based, Trypanosoma cruzi; settings: for S.I. LD50/ED50: HFF1 LD50 / epimastigote ED50; for IC50: Trypanosoma cruzi, read-out: Epi ED50; for antiparasitic effect, summary in words: epimastigotes and trypomastigotes, summary of Table 2; for Epi ED50 (initial screening): initial screening done in 5 mL culture
Method: Epimastigotes were grown at 28 °C.
Epimastigotes were grown in LIT medium at the exponential phase and aliquots of 1 × 10^5 parasites were dispensed in 200 µL/well in a 96-well culture plate (Corning; NY, USA). […] Control samples without the compounds were supplemented with the maximum amount of vehicle used. […] Afterwards, the number of mobile epimastigotes (motility as parameter of viability) was counted in a Neubauer chamber. Relative growth is the difference of the final density of parasites after 24 h of treatment with the compound minus the density of parasites at time 0 of exposure; these differences were further normalized to the relative growth of the culture without compound. Plots of the percentage of relative growth against compound concentration were built and data adjusted to dose–response equation with the Origin Pro software (Origin Pro version 8.0) to calculate the concentration at which the variable is decreased by 50%.

[2] = system: HFF1 human foreskin fibroblasts; test: Viability of human foreskin fibroblasts (trypan blue exclusion); settings: for HFF1 LD50: human
Method: To evaluate the effect on cell viability, HFF1 cells cultured and washed as above were dispensed in a 96 well plate to a concentration of 1 × 10^4 cells/well in 0.2 mL and incubated for 24 h at 37 °C for adherence. […] To determine viability, cells were detached by trypsinization and then collected, and viability was determined by trypan blue exclusion.

[3] = system: T. cruzi Queretaro strain trypomastigotes; test: Viability of trypomastigotes (motility as parameter of viability); assay type: cell-based; settings: Trypanosoma cruzi, read-out: Trypo LD50
Method: For the primary infection, 20,000 HFF1 cells/mL were inoculated in 5 mL DMEM supplemented with 10% FBS in a 175 cm^2 flask (Corning; Corning, NY, USA;) and cultivated at 37 °C and 5% CO2 for 24 h for adherence. Afterwards, the medium was changed to DMEM supplemented with 2% FBS and the cells were infected with 10 × 10^6 epimastigotes previously collected and washed with 10 mL DMEM without FBS. The cells were incubated for 48 h at 37 °C and 5% CO2 and later washed every 24 h with DMEM with 2%FBS until trypomastigotes liberation (5–7 days post infection).
For the secondary infection, LLC-MK2 cells (epithelial cells from the kidney of an adult monkey) were infected in a similar fashion to the primary infection, but using 1 × 10^6 trypomastigotes obtained from the primary infection. The released trypomastigotes were used immediately for drug treatment.
The number of mobile trypomastigotes (motility as parameter of viability) was determined using a Neubauer chamber. Data were processed as above.

[4] = 120 h, epimastigote growth, 5 days, single initial pulse of compound
[5] = epimastigote relative growth, 24 h treatment, 96-well plate
[6] = trypomastigote viability, 3 h treatment

Structure (SMILES) | S.I. LD50/ED50 ([1]; 24 h) | S.I. LD50/ED50 ([1]; 5 days) | IC50 [1, 4] [µM] | IC50 [1, 5] [µM] | HFF1 LD50 ([2]; 24 h) | HFF1 LD50 ([2]; 5 days) | LC50 [3, 6] [µM] | antiparasitic effect, summary in words [1] | LC50 ([3]; 3 h) [µM] | Epi ED50 (initial screening) ([1]; epimastigote growth, 24 h) | cytotoxicity on HFF1 ([2]; 24 h treatment) | cytotoxicity on HFF1 ([2]; 5 days) | concentration at which cytotoxicity started to show ([2]; HFF1, 24 h treatment) [µM]
Nc1nc(N)c2cc(NC(=O)c3ccccc3[N+](=O)[O-])ccc2n1 [Compound 2, N-(2,4-Diaminequinazolin-6-yl)-2-nitrobenzamide] | ≥5 | ≥6.7 | 15 ± 3 | 19 ± 2 | >100 (6) µM | >100 (2) µM | 95 | – | – | – | – | – | –
Nc1nc(N)c2cc(NCc3ccccc3Cl)ccc2n1 [Compound 8] | 4 | – | 6.6 ± 0.5 | 2.3 ± 0.5 | 8.6 ± 2 (4) µM | 8 (2) µM | – | highly toxic for parasites and fibroblasts | 59 | – | – | – | –
Nc1nc(N)c2cc(NCc3cccc(O)c3)ccc2n1 [Compound 13] | – | – | – | – | – | – | – | – | – | >100 * (2) µM | – | – | –
Nc1nc(N)c2cc(NCc3ccccc3[N+](=O)[O-])ccc2n1 [Compound 6] | – | – | – | – | – | – | – | – | – | 143 * (2) µM | – | – | –
Nc1nc(N)c2cc(NC(=O)c3ccccc3)ccc2n1 [Compound 1, N-(2,4-Diaminequinazolin-6-yl)benzamide] | – | – | > 100 | > 100 | >100 (6) µM | >100 (2) µM | – | did not showed an effect in parasites nor in cells | > 150 | – | did not show either cytotoxicity or parasiticidal effects | – | –
Nc1nc(N)c2cc(NCc3ccc(Cl)cc3)ccc2n1 [Compound 10] | 13 | ≥7 | 14 ± 1.2 | 8.9 ± 2 | 116 ± 13 (6) µM | >100 (2) µM | > 150 | – | – | – | – | – | –
Nc1nc(N)c2cc(NCc3cccc(Cl)c3)ccc2n1 [Compound 9] | 11 | ≥12 | 8.1 ± 1.8 | 7.6 ± 2.5 | 85 ± 7 (6) µM | >100 (2) µM | > 150 | – | – | – | – | – | –
O=C(Cn1ccnc1[N+](=O)[O-])NCc1ccccc1 [Bnz, N-benzyl-2-(2-nitroimidazol-1-yl) acetamide, reference compound] | 18 | 7 | 17 ± 10 | 9.4 ± 1.3 | 165 ± 27 (3) µM | 118 ± 14 (3) µM | 183 | – | – | – | – | high cytotoxicity | > 50
Nc1nc(N)c2cc(NCc3ccccc3)ccc2n1 [Compound 5] | ≥5 | – | 14 ± 2 | 13 ± 3 | >60 (4) µM | 26 (2) µM | – | – | > 150 | – | – | – | –
Nc1nc(N)c2cc(NCc3cc(F)ccc3F)ccc2n1 [Compound 11, N^6-(2,5-Difluorobenzyl)quinazoline-2,4,6-triamine] | ≥7 | ≥3 | 20 ± 2 | 9 ± 1.4 | >60 (4) µM | >60 (1) µM | > 150 | – | – | – | – | – | –
Nc1nc(N)c2cc(NC(=O)c3ccc([N+](=O)[O-])cc3)ccc2n1 [Compound 4, N-(2,4-Diaminequinazolin-6-yl)-4-nitrobenzamide] | ≥10 | ≥10 | 10 | 10 ± 0.4 | >100 (6) µM | >100 (2) µM | 60 | – | – | – | – | – | –
CC1CS(=O)(=O)CCN1/N=C/c1ccc([N+](=O)[O-])o1 (stereo not drawn) [Nfx, (E)-N-(3-methyl-1,1-dioxo-1,4-thiazinan-4-yl)-1-(5-nitrofuran-2-yl) methanimine, reference compound] | – | – | 11.8 ± 0.1 | 3.8 ± 1.2 | – | – | – | – | – | – | – | – | –
COc1cc(CNc2ccc3nc(N)nc(N)c3c2)cc(OC)c1OC [Compound 14, N^6-(3,4,5-Trimethoxybenzyl)quinazoline-2,4,6-triamine] | – | – | – | – | – | – | – | – | – | >100 * (2) µM | – | – | –
Nc1nc(N)c2cc(NCc3ccc([N+](=O)[O-])cc3)ccc2n1 [Compound 7] | – | – | – | – | – | – | – | – | – | >100 * (2) µM | – | – | –
Nc1nc(N)c2cc(NC(=O)c3cccc([N+](=O)[O-])c3)ccc2n1 [Compound 3, N-(2,4-Diaminequinazolin-6-yl)-3-nitrobenzamide] | ≥42 | ≥11 | 8.9 | 2.4 ± 0.4 | >100 (6) µM | >100 (2) µM | 50 | – | – | – | – | – | –
Nc1nc(N)c2cc(NCc3ccccc3OC(F)(F)F)ccc2n1 [Compound 12] | – | – | – | – | – | – | – | – | – | 44 ± 3 (3) µM | – | – | –

Reference: paper PMC11435156, “Exploring Quinazoline Nitro-Derivatives as Potential Antichagasic Agents: Synthesis and In Vitro Evaluation” (Molecules, 2024)
